Assays:
RCAR1/PYL9-ABI2 = assay: Yeast ABA signal pathway LUC reporter, RCAR1-ABI2; format: cell-based, Arabidopsis thaliana
Experimental: The yeast cultivation and the life luciferase assay were performed as described ([Ruschhaupt et al., 2019]). Briefly, the reporter yeast expressing an ABA-dependent luciferase gene (LUC) was transformed with different combinations of ABA signaling components as indicated. Golden gate cloning ([Binder et al., 2014]) was used to construct pYEAST_LII_5‐6_CEN_URA vector with TDH3 promoter and TDH1 terminator (tTDH1), pYEAST_LII_1‐2_CEN_LEU vector with GK1 promoter and tTDH1, and pYEAST_LII_3‐4_CEN_TRP with the GAL1 promoter (pGAL1) and tTDH1 to express RCARs, PP2Cs, and OST1 (SnRK2.6), respectively ([Ruschhaupt et al., 2019]). […]
Colonies of freshly transformed cells were inoculated in 0.5 mL supplemented synthetic dextrose (SD) medium and incubated at 30°C in a gyratory shaker (Thermoshake-THO500, Gerhardt, Königswinter, Germany) at 200 rpm for 16-18 h. […] Light emission of yeasts was detected in a HIDEX plate luminometer (HIDEX, Turku, Finland) after injection of 100 µL freshly prepared luciferin substrate (1 mM D-luciferin, Promega) provided in 100 mM citric acid, pH 3 ([Leskinen et al., 2003]) for 5 s and was corrected for background. The LUC activity was normalized to the cell density (OD600) measured in 96-well flat plates (Sarstedt, Nümbrecht, Germany). […]

RCAR11-ABI2 = system: T1, RCAR11-ABI2; assay: In vitro phosphatase assay, ABI2 with RCAR11; format: biochemical, Arabidopsis thaliana; settings: 100 nM ABI2, 200 nM RCAR11
T1 construct: 6xHis (N); made in house; host or cells: Escherichia coli BL21
Experimental: (§1) Expression, purification, and analysis of RCAR and PP2C proteins were performed essentially as described ([Ruschhaupt et al., 2019]). Briefly, the ABA receptors RCAR1, RACR8, and RCAR11 were expressed with an aminoterminal histidine tag using the pSEVA431_LII_6xHIS::RCAR1/RCAR8/RCAR11. ABA coreceptors were expressed as histidine-tagged fusions with the maltose-binding protein using the pSEVA431_LII_6xHIS::MBP::ABI2/HAB1. All constructs were transformed and expressed in Escherichia coli strain BL21 and purified to homogeneity according to supplier’s instruction (GE Healthcare, Chicago, USA). The receptor assay was performed with 100 nM PP2C and a two-fold molar excess of RCAR. Values are means ± SD of three replicates. […] The maximum inhibition was set to 100% in the figures. The phosphatase activity was measured using 4-methylumbelliferyl-phosphate as a substrate ([Meinhard and Grill, 2001]). The increase in fluorescence was recorded over 25 min with excitation and emission wavelengths at 360 and 460 nm, respectively, using a Synergy 2 plate reader (Bio-Tec, Winooski, USA).

RCAR1-HAB1 = target: T2, RCAR1-HAB1; assay: In vitro phosphatase assay, HAB1 with RCAR1; format: biochemical, Arabidopsis thaliana; settings: 100 nM HAB1, 200 nM RCAR1
T2 construct: 6xHis (N); made in house; host or cells: Escherichia coli BL21
Experimental: as §1

Arabidopsis plants = assay: Progressive drought experiment: growth, water consumption, WUE; format: in vivo, Arabidopsis thaliana
Experimental: The progressive drought experiment was performed as described ([Yang et al., 2016]). Briefly, 18-day-old Arabidopsis plantlets grown under well-watered and short-day conditions (8 h light with 150 µmol m^-2 s^-1 PAR, 22°C, 50% relative humidity, and 16 h dark with 17°C, 60% relative humidity) were transferred to 0.2 L pots loaded with water-saturated soil (33.4 ± 0.4 g dry soil with 148 ± 2 g water). At the onset of the progressive drought (day 0), water was withheld, and a sealed soil surface prevented evaporation. A slowly increasing water deficit was achieved by transpirational water loss from plants. The progressive drought experiment lasted for eight weeks until mock-treated plants had consumed all the plant-usable water. […] For measuring growth and water consumption, leaf rosettes were regularly photographed, and the pots were weighed. The projected leaf area of Arabidopsis rosettes was analyzed by using Photoshop Elements software (Adobe, San Jose, USA). The consumed water was calculated as the difference in pot weight between day 0 and the designated days. The retained water was expressed as the difference between the pot weight at the end of the drought (day 57) and the weight of the loaded dry soil. Above-ground material was harvested at day 57, and the biomass was determined after drying the material for three days at 60°C to achieve constant weight. WUE was calculated as the ratio of above-ground dry biomass to consumed water. The data for the mock- and ABA-treated plants in the progressive drought experiment were already published ([Yang et al., 2019]).

- Inhibition of ABI2 compared to ABA (RCAR11-ABI2): comparable to ABA
- IC50 with HAB1 compared to the ABI2 results (RCAR1-HAB1): lower IC50 value
Compound: CCC(=C/C(=O)O)/C=C/C(O)(C(C)C)C1(C#N)CC1 (centres unmarked) [CCP2]
- Higher exogenous concentration required for reporter expression comparable to 1 µM ABA (RCAR1/PYL9-ABI2): > 30 x
- WUE increase (Arabidopsis plants; 30 µM solute concentration): ~50%
- Growth of leaf rosettes compared to mock (Arabidopsis plants; 30 µM, three administrations): growth reduction
- Plant-usable soil water transpired (Arabidopsis plants; end of drought experiment): ~70%
- WUE improvement compared to controls (Arabidopsis plants; end of drought experiment): up to 50%
- Restriction of water consumption (Arabidopsis plants; single administration, for two weeks): approximately 30%

Source: PMC9894685, “Abscisic acid agonists suitable for optimizing plant water use” (Frontiers in Plant Science, 2023)
